Source: PMC4942689, “Deciphering the function of the CNGB1b subunit in olfactory CNG channels” (Scientific Reports, 2016)

What was measured:
[1] = biological target: T1, CNGA2RE:A4RE:B1bRE (Rattus norvegicus, UniProt A0A8I5ZN27+Q00195+Q64359, R1106E/R430E/R538E); assay: Channel activation during confocal patch-clamp fluorometry; format: biochemical; details: 2 μM fHcAMP; binding domain in CNGB1b also disabled
T1 construct: expressed in transfected cells; host or cells: Xenopus laevis oocytes (cRNA injection), excised inside-out patches
Description: (§1) To verify the hypothesis that the CNGB1b subunit in CNGA2:A4:B1b channels binds cyclic nucleotides, we coexpressed CNGB1b with CNGA4RE and either CNGA2RE or CNGA2TM and measured ligand binding in the presence of 10 μM fcGMP. […] To verify the specificity of the binding to the CNGB1b subunit in these heterotetrameric channels, we coexpressed the CNGB1bRE subunit with CNGA2RE and CNGA4RE.
Figure 2 In a CNGA2:A4 background the CNGB1b subunit binds both fcGMP and fHcAMP and activates the channel. (a) Binding of fcGMP to the CNGB1b subunit evokes channel activation. Binding of fcGMP to CNGB1b was observed when coexpressed with either CNGA2RE:A4RE or CNGA2TM:A4RE (upper diagram). […] (b) Binding of fHcAMP to CNGB1b was observed when coexpressed with both CNGA2RE and CNGA4RE. When disabling the binding domain of CNGB1b, the fluorescence intensity was nearly abolished. Correspondingly, CNGA2RE:A4RE:B1b channels were activated by the ligand only when the CNGB1b binding site was available.
(§2) Patch-clamp experiments were performed using an Axopatch 200B amplifier (Molecular Devices LLC, CA, U.S.A.) in the inside-out configuration. The patch pipettes for recording of macroscopic currents were pulled from borosilicate glass tubing (outer diameter 2.0 mm, inner diameter 1.0 mm; Hilgenberg GmbH, Germany). The initial resistance was 0.7–1.3 MΩ. The patches were formed as pushed inside-out patches. […] Cyclic nucleotide concentration jumps were performed using a double-barreled glass pipette mounted on a piezo-driven device. Intracellular (bath) and extracellular (pipette) solutions contained (mM) 150 KCl, 1 EGTA, 5 Hepes, pH = 7.4 with KOH. […] Currents in the absence of the cyclic nucleotide were subtracted. All patches included in this study were first tested for channel expression in the presence of a saturating ligand concentration. Only patches with large current, i.e. a large number of channels, were included in our statistics. The currents were measured at +10 mV or, if mentioned, at +100 mV.
(§3) The ligand binding was measured in macropatches by patch-clamp fluorometry[41][42] combined with confocal microscopy. […] Recordings were performed with an LSM 510 or 710 confocal microscope (Zeiss, Jena, Germany) and were triggered by the ISO3 software (MFK, Niedernhausen, Germany). To distinguish between the fluorescence of the unbound ligands from that of the bound ligands, a second dye, DY647 (Dyomics, Jena, Germany), was added to the bath solution. The 543-nm and 633-nm lines of a He-Ne laser were used to excite fcAMP/fcGMP and DY647, respectively. The method of confocal patch-clamp fluorometry has been described in detail previously.

[2] = biological target: T2, CNGA2RE:B1b (Rattus norvegicus, UniProt A0A8I5ZN27+Q00195, R538E); assay: Ligand binding, confocal patch-clamp fluorometry; design: key to Ligand binding to CNGB1b: +: ligand binding to the respective modulatory subunits was either observed or not; −: ligand binding to the respective modulatory subunits was either observed or not; details: for Ligand binding to CNGB1b: construct CNGA2RE:B1b
T2 construct: expressed in transfected cells; host or cells: Xenopus laevis oocytes (cRNA injection), excised patches
From the text: (§4) The channels to be studied were expressed in Xenopus oocytes. We first tested the subunit composition in our channels when coexpressing different combinations of subunits by single-channel recordings. For CNGA2:A4, CNGA2:B1b and CNGA2:A4:B1b channels we exclusively obtained the specific and easily distinguishable single-channel activity reported earlier when injecting respective amounts of RNA[7][13]. We therefore assumed that the channels formed had always the expected subunit composition. The specific binding of cyclic nucleotides and the activation of the CNG channels were measured in parallel by means of confocal patch-clamp fluorometry in excised patches, using fluorescent cyclic nucleotide derivatives. The method has been described previously.
To study ligand binding to the CNGB1b subunit selectively, the binding domain of the CNGA2 subunits was disabled by either the point mutation R538E (red crosses in the cartoons) or T539M (blue crosses in the cartoons)[13][20]. […] To this end, CNGB1b was coexpressed with CNGA2RE.
as §3

[3] = biological target: T3, CNGA2:A4:B1b channels (Rattus norvegicus, UniProt A0A8I5ZN27+Q00195+Q64359); assay: Concentration-activation relationship, inside-out patch-clamp; format: biochemical
T3 construct: expressed in transfected cells; host or cells: Xenopus laevis oocytes (cRNA injection 2:1:1), excised inside-out patches
Description: as §2
Fits of equations to data points were performed with the 8.1G® software (OriginLab Corporation, Northampton, U.S.A.). Concentration-activation relationships were obtained by relating the actual current amplitude, I, to the maximum current amplitude elicited by a saturating concentration of ligand, Imax, and plotting this ratio as function of the ligand concentration, x. The concentration-activation data were fitted using the Hill equation
where EC50 is the ligand concentration of half maximum effect and H the Hill coefficient.
In fHcAMP the dye DY547 is coupled to
(b) Concentration-activation relationships of the CNGA2:A4:B1b channels activated by either
The currents were recorded […]

[4] = biological target: T1, CNGA2RE:A4RE:B1bRE; assay: Ligand binding, confocal patch-clamp fluorometry; design: key to Ligand binding to CNGA4 / Ligand binding to CNGB1b: +: ligand binding to the respective modulatory subunits was either observed or not; −: ligand binding to the respective modulatory subunits was either observed or not
From the text: as §4, §1, §3

[5] = biological target: T4, CNGA2RE:A4RE:B1b (Rattus norvegicus, UniProt A0A8I5ZN27+Q00195+Q64359, R430E/R538E); assay: Ligand binding, confocal patch-clamp fluorometry; design: key to Ligand binding to CNGA4 / Ligand binding to CNGB1b: +: ligand binding to the respective modulatory subunits was either observed or not; −: ligand binding to the respective modulatory subunits was either observed or not
T4 construct: expressed in transfected cells; host or cells: Xenopus laevis oocytes (cRNA injection), excised inside-out patches
From the text: as §4, §1, §3

[6] = biological target: T4, CNGA2RE:A4RE:B1b; assay: Concentration-activation relationship and activation by fluorescent ligands, patch-clamp; format: biochemical; details: 2 μM fHcAMP; of the saturating activation measured with 4 mM cGMP
Description: as §2, with “In order to determine the apparent affinity of the modulatory subunits in heterotetrameric CNGA2:A4:B1b channels for cGMP, we coexpressed each of them with disabled neighbored subunits, generating themselves activation effects only at much higher ligand concentrations. In case of two well-separated current components, this would allow us to determine the EC50 value for the CNGB1b and CNGA4 subunit in functional heterotetrameric channels. Patch-clamp” for “Patch-clamp”, “The initial resistance was 0.7–1.3 MΩ.” left out, “mV. Fits of equations to data points were performed with the 8.1G® software (OriginLab Corporation, Northampton, U.S.A.). Concentration-activation relationships were obtained by relating the actual current amplitude, I, to the maximum current amplitude elicited by a saturating concentration of ligand, Imax, and plotting this ratio as function of the ligand concentration, x.” for “mV.”

T3 sequence (Q00195 whole entry): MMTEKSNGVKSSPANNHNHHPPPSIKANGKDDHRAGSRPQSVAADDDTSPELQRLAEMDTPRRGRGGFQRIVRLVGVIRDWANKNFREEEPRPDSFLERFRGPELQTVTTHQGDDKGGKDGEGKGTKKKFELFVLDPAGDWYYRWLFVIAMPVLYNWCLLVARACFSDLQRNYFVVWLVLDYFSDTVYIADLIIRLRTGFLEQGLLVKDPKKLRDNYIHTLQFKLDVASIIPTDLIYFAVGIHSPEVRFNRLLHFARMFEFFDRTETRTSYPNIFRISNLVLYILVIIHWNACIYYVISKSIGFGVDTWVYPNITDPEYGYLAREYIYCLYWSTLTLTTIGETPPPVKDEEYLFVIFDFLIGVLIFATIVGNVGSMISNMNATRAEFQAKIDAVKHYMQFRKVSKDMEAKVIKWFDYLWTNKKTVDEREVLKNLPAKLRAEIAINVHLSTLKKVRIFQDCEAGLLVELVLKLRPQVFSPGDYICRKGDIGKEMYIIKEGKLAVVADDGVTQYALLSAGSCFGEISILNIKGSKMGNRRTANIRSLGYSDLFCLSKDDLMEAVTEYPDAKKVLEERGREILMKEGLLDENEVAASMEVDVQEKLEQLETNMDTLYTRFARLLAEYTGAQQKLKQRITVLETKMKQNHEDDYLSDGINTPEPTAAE
T3 sequence (Q64359 whole entry): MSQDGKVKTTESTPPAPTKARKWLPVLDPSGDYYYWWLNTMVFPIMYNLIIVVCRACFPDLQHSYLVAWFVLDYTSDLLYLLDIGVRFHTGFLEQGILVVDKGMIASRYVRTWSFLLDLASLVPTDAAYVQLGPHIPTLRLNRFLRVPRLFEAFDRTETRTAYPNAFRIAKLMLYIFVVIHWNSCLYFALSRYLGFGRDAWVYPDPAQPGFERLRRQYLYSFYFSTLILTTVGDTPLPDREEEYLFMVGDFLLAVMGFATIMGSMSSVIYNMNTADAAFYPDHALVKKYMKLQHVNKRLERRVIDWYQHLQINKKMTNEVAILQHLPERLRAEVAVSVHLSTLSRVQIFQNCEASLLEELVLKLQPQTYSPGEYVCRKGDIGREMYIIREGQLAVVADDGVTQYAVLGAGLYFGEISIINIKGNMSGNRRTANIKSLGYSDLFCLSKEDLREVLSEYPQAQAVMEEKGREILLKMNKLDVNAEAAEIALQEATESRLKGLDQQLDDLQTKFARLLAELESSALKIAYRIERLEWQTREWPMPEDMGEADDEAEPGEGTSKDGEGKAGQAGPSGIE
T3 sequence (A0A8I5ZN27 1-858 isoform A0A8I5ZN27-2): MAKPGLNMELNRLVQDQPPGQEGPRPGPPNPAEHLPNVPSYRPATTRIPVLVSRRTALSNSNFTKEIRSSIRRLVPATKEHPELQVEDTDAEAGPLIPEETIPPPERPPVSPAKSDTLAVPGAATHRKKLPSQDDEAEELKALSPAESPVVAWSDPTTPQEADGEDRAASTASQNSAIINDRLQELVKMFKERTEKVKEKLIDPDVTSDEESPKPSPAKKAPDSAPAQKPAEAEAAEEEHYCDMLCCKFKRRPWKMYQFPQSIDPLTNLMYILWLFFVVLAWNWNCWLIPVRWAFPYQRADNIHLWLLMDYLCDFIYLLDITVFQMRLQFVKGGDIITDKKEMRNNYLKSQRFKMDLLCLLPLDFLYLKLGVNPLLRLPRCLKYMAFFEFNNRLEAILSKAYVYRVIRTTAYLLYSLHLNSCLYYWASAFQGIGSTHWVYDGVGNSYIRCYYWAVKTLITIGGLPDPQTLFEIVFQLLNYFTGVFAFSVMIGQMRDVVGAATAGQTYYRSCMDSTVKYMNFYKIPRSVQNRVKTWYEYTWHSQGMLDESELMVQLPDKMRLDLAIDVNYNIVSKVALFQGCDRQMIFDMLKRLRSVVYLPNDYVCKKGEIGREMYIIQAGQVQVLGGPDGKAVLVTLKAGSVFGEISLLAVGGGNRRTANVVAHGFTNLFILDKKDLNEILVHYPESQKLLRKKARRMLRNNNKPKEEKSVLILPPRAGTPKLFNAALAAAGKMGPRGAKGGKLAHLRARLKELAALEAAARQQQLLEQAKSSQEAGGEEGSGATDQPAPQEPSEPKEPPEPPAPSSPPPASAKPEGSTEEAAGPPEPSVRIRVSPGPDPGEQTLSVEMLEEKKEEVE
T2 sequence (Q00195 whole entry R538E): as the sequence (Q00195 whole entry) above, with R538E counted along it
T2 sequence (A0A8I5ZN27 1-858 isoform A0A8I5ZN27-2, stated change not applied): as the sequence (A0A8I5ZN27 1-858 isoform A0A8I5ZN27-2) above
T1 sequence (Q00195 whole entry R538E, the tested form may be a part): as the sequence (Q00195 whole entry) above, with R538E counted along it
T1 sequence (Q64359 whole entry R430E, the tested form may be a part): as the sequence (Q64359 whole entry) above, with R430E counted along it
T1 sequence (A0A8I5ZN27 1-858 isoform A0A8I5ZN27-2 R657E): as the sequence (A0A8I5ZN27 1-858 isoform A0A8I5ZN27-2) above, with R657E counted along it
T4 sequence (Q00195 whole entry R538E): as the sequence (Q00195 whole entry) above, with R538E counted along it
T4 sequence (Q64359 whole entry R430E): as the sequence (Q64359 whole entry) above, with R430E counted along it
T4 sequence (A0A8I5ZN27 1-858 isoform A0A8I5ZN27-2, stated change not applied): as the sequence (A0A8I5ZN27 1-858 isoform A0A8I5ZN27-2) above

Row | activation [1] | Ligand binding to CNGB1b ([2]; 2 μM) | binding to the CNGB1b subunit (in words) ([2]; fHcAMP, CNGA2RE:B1b channels) | EC50 ([3]; CNGA2:A4:B1b, steady-state, +10 mV, equation (1), 7-10 patches) | H ([3]; Hill coefficient, CNGA2:A4:B1b, steady-state, +10 mV) | potency to open CNGA2:A4:B1b channels compared to fcAMP ([3]; relative to fcAMP) | binding to the CNGB1b subunit (in words) ([4]; 2 μM fHcAMP, binding domain in CNGB1b also disabled) | Ligand binding to CNGB1b ([4]; 2 μM, construct CNGA2RE:A4RE:B1bRE) | binding to the CNGB1b subunit (in words) ([5]; 2 μM fHcAMP, CNGA2RE:A4RE:B1b channels) | Ligand binding to CNGB1b ([5]; 2 μM, construct CNGA2RE:A4RE:B1b) | channel activation [6] | ligand binding to the CNGB1b subunit (in words) ([2]; 10 μM, CNGB1b coexpressed with CNGA2RE) | Ligand binding to CNGB1b ([2]; 10 μM) | Substance
1 | abolished | − | did not detectably bind | 0.59 µM | 1.2 | eight times higher potency | abolished | − | binds | + | 3.1 ± 0.7% |  |  | 8-[DY-547]-AHT-cAMP [fHcAMP]
2 |  |  |  |  |  |  |  |  |  |  |  | no ligand binding | − | 8-[DY-547]-AET-cAMP [fcAMP]
